What was measured:
milkweed bug = test: topical application to milkweed bug, fourth nymphal stage, maturation inhibition; assay type: in vivo; settings: rating scale 0-3
Excerpt: (§1) The compounds were applied in acetone solution at concentrations of 10 percent, 1 percent and 0.5 percent. One microliter of the acetone solution was applied to each test specimen. Ten test specimens were employed for each insect at each concentration and compared to ten acetone controls and ten zero controls. Approximately eight to ten days were required before results could be ascertained.
(§2) The insect species used in the test were Tenebrio molitor pupae; milkweed bug, fourth nymphal stage; wax moth, fifth larval stage; and Mexican bean beetle, fourth larval stage. At the completion of the test, each specimen was examined for the degree of juvenile and adult characteristics. The milkweed bug, wax moth, and Mexican bean beetle were assigned a numerical rating of 0 to 3 with 0 indicating no effect and 3 indicating the maximum effect or least adult development. Because of differences in morphology the Tenebrio rating scale was 0 to 4. In all cases a rating of 2 or higher means that the insect is incapable of reproduction. The number of specimens in each rating classification are given. In any test were the total of specimens reported is less than 10, those unreported died in some metamorphic stage. Such deaths indicate control, since the dead insects are not capable of reproducing.

[1] = tested on: Housefly (Musca domestica); test: housefly rearing diet test, percent adult emergence; assay type: in vivo
Method: Test compounds were mixed with the rearing diet of houseflys at various levels. The prepared diet was then placed in an 8 oz. drinking cup. Three cups were prepared for each treatment level and three control cups. Housefly eggs (Musca domestica) were placed in each cup and they were maintained at 28°C. for 1 week. Fifty pupae were then removed from each cup and placed in a petri dish. After the control pupae had emerged into adults, the percent emergence in each dish was recorded. The test compounds used were 7,8-epoxy-4-ethyl-8-methyl-1-(3,4-methylenedioxyphenyl)-3-decene, 4,8-dimetyl-1-(3,4-methylenedioxyphenyl)-2,6-nonadiene and 2,6-dichloro-2,6-dimethyl-9-(3,4-methylenedioxyphenyl)nonane.

Tenebrio molitor pupae = test: topical application to Tenebrio molitor pupae, maturation inhibition; assay type: in vivo
Excerpt: as §1, §2

Mexican bean beetle = test: topical application to Mexican bean beetle, fourth larval stage, maturation inhibition; assay type: in vivo
Excerpt: as §1, §2

housefly larvae = test: topical application to housefly larvae; assay type: in vivo, Musca domestica
Method: as §1
A number of compounds were tested against housefly larvae by topical application in an acetone solution using the method described above for the primary test against Tenebrio, milkweed bug, wax moth, and Mexican bean bettel. The results with the first compound are reported on a scale of 0 to 3 with 0 indicating a normal adult, 1 indicating an adult with deformed wings, 2 indicating a partially emerged adult, and 3 indicating no evidence of emergence. The results for the other compounds are reported onn a scale of 0 to 2 with 0 indicating a normal adult, 1 indicating a partially emerged adult and 2 indicating no evidence of emergence.

wax moth = test: topical application to wax moth, fifth larval stage, maturation inhibition; assay type: in vivo
Excerpt: as §1, §2

[2] = 10% in acetone, 1 microliter topical, rating scale 0 (no effect) to 3 (maximum)

CC(C)(Cl)CCCC(C)(Cl)CCCc1ccc2c(c1)OCO2 (stereo not shown) [2,6-dichloro-2,6-dimethyl-9-(3,4-methylenedioxyphenyl)nonane]
number of specimens in rating 3 (milkweed bug; 0.5%): 8 specimens
number of specimens in rating 3 (milkweed bug; 1%): 10 specimens
number of specimens in rating 3 (milkweed bug; 10%): 5 specimens
percent adult emergence, Cup 1 ([1]; 0.1 ppm in diet): 100%
percent adult emergence, Cup 2 ([1]; 0.1 ppm in diet): 100%
percent adult emergence, Cup 3 ([1]; 0.1 ppm in diet): 100%
percent adult emergence, Cup 1 ([1]; 1 ppm in diet): 100%
percent adult emergence, Cup 2 ([1]; 1 ppm in diet): 100%
percent adult emergence, Cup 3 ([1]; 1 ppm in diet): 100%
percent adult emergence, Cup 1 ([1]; 10 ppm in diet): 100%
percent adult emergence, Cup 2 ([1]; 10 ppm in diet): 90%
percent adult emergence, Cup 3 ([1]; 10 ppm in diet): 90%
control ([1]; 100 ppm): 100%
percent adult emergence, Cup 1 ([1]; 100 ppm in diet): 0%
percent adult emergence, Cup 2 ([1]; 100 ppm in diet): 0%
percent adult emergence, Cup 3 ([1]; 100 ppm in diet): 0%
number of specimens in rating 1 (Tenebrio molitor pupae; 0.5%, rating scale 0-4): 2 specimens
number of specimens in rating 2 (Tenebrio molitor pupae; 0.5%, rating scale 0-4): 8 specimens
number of specimens in rating 2 (Tenebrio molitor pupae; 1%, rating scale 0-4): 10 specimens
number of specimens in rating 2 (Tenebrio molitor pupae; 10%, rating scale 0-4): 1 specimens
number of specimens in rating 3 (Tenebrio molitor pupae; 10%, rating scale 0-4): 9 specimens
number of specimens in rating 0 (Mexican bean beetle; 0.5%, rating scale 0-3): 8 specimens
number of specimens in rating 1 (Mexican bean beetle; 0.5%, rating scale 0-3): 2 specimens
number of specimens in rating 0 (Mexican bean beetle; 1%, rating scale 0-3): 5 specimens
number of specimens in rating 1 (Mexican bean beetle; 1%, rating scale 0-3): 3 specimens
number of specimens in rating 2 (Mexican bean beetle; 1%, rating scale 0-3): 2 specimens
number of specimens in rating 1 (Mexican bean beetle; 10%, rating scale 0-3): 1 specimens
number of specimens in rating 2 (Mexican bean beetle; 10%, rating scale 0-3): 4 specimens
number of specimens in rating 3 (Mexican bean beetle; 10%, rating scale 0-3): 5 specimens
number in rating 0 (normal adult) (housefly larvae; 0.5%, scale 0-2): 2
number in rating 2 (no evidence of emergence) (housefly larvae; 0.5%, scale 0-2): 8
number in rating 0 (normal adult) (housefly larvae; 1%, scale 0-2): 1
number in rating 2 (no evidence of emergence) (housefly larvae; 1%, scale 0-2): 9
number in rating 2 (no evidence of emergence) (housefly larvae; 10%, scale 0-2): 10
number of specimens in rating 0 (wax moth; 0.5%, rating scale 0-3): 10 specimens
number of specimens in rating 0 (wax moth; 1%, rating scale 0-3): 10 specimens
number of specimens in rating 0 (wax moth; [2]): 10 specimens

CC(=CCCc1ccc2c(c1)OCO2)CCC1OC1(C)C (stereo not shown) [9-(3,4-methylenedioxyphenyl)-2,6-dimethyl-2,3-epoxy-6-nonene]
number of specimens in rating 1 (milkweed bug; 0.5%): 2 specimens
number of specimens in rating 2 (milkweed bug; 0.5%): 4 specimens
number of specimens in rating 1 (milkweed bug; 1%): 5 specimens
number of specimens in rating 3 (milkweed bug; 1%): 2 specimens
number of specimens in rating 3 (milkweed bug; 10%): 7 specimens
number of specimens in rating 4 (Tenebrio molitor pupae; 0.5%, rating scale 0-4): 10 specimens
number of specimens in rating 0 (Tenebrio molitor pupae; 1%, rating scale 0-4): 1 specimens
number of specimens in rating 4 (Tenebrio molitor pupae; 1%, rating scale 0-4): 9 specimens
number of specimens in rating 4 (Tenebrio molitor pupae; 10%, rating scale 0-4): 10 specimens
number in rating 2 (no evidence of emergence) (housefly larvae; 1%, scale 0-2): 10
number in rating 2 (no evidence of emergence) (housefly larvae; 10%, scale 0-2): 10

CC(C)=CCC/C(C)=C\CCc1ccc(Cl)cc1 [cis-9-(4-chlorophenyl)-2,6-dimethyl-2,6-nonadiene]
number in rating 0 (normal adult) (housefly larvae; 0.5%, scale 0-2): 3
number in rating 1 (partially emerged adult) (housefly larvae; 0.5%, scale 0-2): 3
number in rating 2 (no evidence of emergence) (housefly larvae; 0.5%, scale 0-2): 3
number in rating 0 (normal adult) (housefly larvae; 1%, scale 0-2): 2
number in rating 1 (partially emerged adult) (housefly larvae; 1%, scale 0-2): 2
number in rating 2 (no evidence of emergence) (housefly larvae; 1%, scale 0-2): 4
number in rating 1 (partially emerged adult) (housefly larvae; 10%, scale 0-2): 2
number in rating 2 (no evidence of emergence) (housefly larvae; 10%, scale 0-2): 6

CC(C)=CCC/C(C)=C/CCc1ccc(Cl)c(Cl)c1 [trans-2,6-dimethyl-9-(3,4-dichlorophenyl)-2,6-nonadiene]
number of specimens in rating 3 (milkweed bug; 0.5%): 10 specimens
number of specimens in rating 3 (milkweed bug; 1%): 10 specimens
number of specimens in rating 3 (milkweed bug; 10%): 10 specimens
number of specimens in rating 0 (Tenebrio molitor pupae; 0.5%, rating scale 0-4): 10 specimens
number of specimens in rating 0 (Tenebrio molitor pupae; 1%, rating scale 0-4): 10 specimens
number of specimens in rating 0 (Tenebrio molitor pupae; 10% in acetone, 1 microliter topical, rating scale 0 (no effect) to 4 (maximum)): 10 specimens
number of specimens in rating 0 (Mexican bean beetle; 0.5%, rating scale 0-3): 10 specimens
number of specimens in rating 0 (Mexican bean beetle; 1%, rating scale 0-3): 10 specimens
number of specimens in rating 0 (Mexican bean beetle; [2]): 6 specimens
number of specimens in rating 1 (Mexican bean beetle; 10%, rating scale 0-3): 1 specimens
number of specimens in rating 2 (Mexican bean beetle; 10%, rating scale 0-3): 1 specimens
number of specimens in rating 3 (Mexican bean beetle; 10%, rating scale 0-3): 2 specimens
number in rating 0 (normal adult) (housefly larvae; 0.5%, scale 0-3): 3
number in rating 2 (partially emerged adult) (housefly larvae; 0.5%, scale 0-3): 1
number in rating 3 (no evidence of emergence) (housefly larvae; 0.5%, scale 0-3): 6
number in rating 0 (normal adult) (housefly larvae; 1%, scale 0-3): 8
number in rating 3 (no evidence of emergence) (housefly larvae; 1%, scale 0-3): 2
number in rating 0 (normal adult) (housefly larvae; 10%, scale 0-3): 5
number in rating 3 (no evidence of emergence) (housefly larvae; 10%, scale 0-3): 5
number of specimens in rating 0 (wax moth; 0.5%, rating scale 0-3): 10 specimens
number of specimens in rating 0 (wax moth; 1%, rating scale 0-3): 10 specimens
number of specimens in rating 0 (wax moth; [2]): 10 specimens

CC(C)=CCC/C(C)=C/CCc1ccc(Cl)cc1 [trans-2,6-dimethyl-9-(4-chlorophenyl)-2,6-nonadiene]
number of specimens in rating 3 (milkweed bug; 0.5%): 10 specimens
number of specimens in rating 3 (milkweed bug; 1%): 10 specimens
number of specimens in rating 3 (milkweed bug; 10%): 10 specimens
number of specimens in rating 0 (Tenebrio molitor pupae; 0.5%, rating scale 0-4): 10 specimens
number of specimens in rating 0 (Tenebrio molitor pupae; 1%, rating scale 0-4): 4 specimens
number of specimens in rating 1 (Tenebrio molitor pupae; 1%, rating scale 0-4): 3 specimens
number of specimens in rating 3 (Tenebrio molitor pupae; 1%, rating scale 0-4): 3 specimens
number of specimens in rating 4 (Tenebrio molitor pupae; 10%, rating scale 0-4): 10 specimens
number of specimens in rating 3 (Mexican bean beetle; 0.5%, rating scale 0-3): 10 specimens
number of specimens in rating 3 (Mexican bean beetle; 1%, rating scale 0-3): 10 specimens
number of specimens in rating 3 (Mexican bean beetle; 10%, rating scale 0-3): 10 specimens
number in rating 0 (normal adult) (housefly larvae; 0.5%, scale 0-2): 4
number in rating 2 (no evidence of emergence) (housefly larvae; 0.5%, scale 0-2): 6
number in rating 0 (normal adult) (housefly larvae; 1%, scale 0-2): 3
number in rating 1 (partially emerged adult) (housefly larvae; 1%, scale 0-2): 3
number in rating 2 (no evidence of emergence) (housefly larvae; 1%, scale 0-2): 4
number in rating 0 (normal adult) (housefly larvae; 10%, scale 0-2): 3
number in rating 1 (partially emerged adult) (housefly larvae; 10%, scale 0-2): 1
number in rating 2 (no evidence of emergence) (housefly larvae; 10%, scale 0-2): 5
number of specimens in rating 0 (wax moth; 0.5%, rating scale 0-3): 10 specimens
number of specimens in rating 0 (wax moth; 1%, rating scale 0-3): 9 specimens
number of specimens in rating 2 (wax moth; 1%, rating scale 0-3): 1 specimens
number of specimens in rating 0 (wax moth; [2]): 6 specimens
number of specimens in rating 1 (wax moth; 10%, rating scale 0-3): 1 specimens
number of specimens in rating 2 (wax moth; 10%, rating scale 0-3): 3 specimens

— patent US3962282A, “Juvenile hormone mimics” (priority 1974, dated 1976)
